Data published in patent US9550747B2, “Dapagliflozin crystalline form and preparation method thereof” (Jiangsu Hansoh Pharmaceutical Group Co., Ltd., priority 2014, dated 2017).
Where two headings read alike, the source gives them in different places.

Assays:
[1] = not given; remark: listed apart in the source
[2] = 30° C.±2° C./RH 65%±5%
Protocol: (§1) The crystal resulting from Example 1 was placed under acceleration conditions for 6 months.
Conditions: 30° C.±2° C./RH 65%±5%
(§2) Package: Two layers of low density polyethylene bag for medicinal use were sealed by hot-melt respectively, and desiccant was added. The bag was sealed and packaged with a pharmaceutical composite film bag of polyester/aluminum/polyamide/cast polypropylene.

[3] = 21° C.±2° C./RH 45%±5%
Protocol: as §1
Conditions: 21° C.±2° C./RH 45%±5%
as §2

## CCOc1ccc(Cc2cc([C@@H]3O[C@H](CO)[C@@H](O)[C@H](O)[C@H]3O)ccc2Cl)cc1 [crystal of the present invention, 2-chloro-5-(β-D-glucopyranosyl-1-yl)-4′-ethoxy-diphenylmethane]
After grinding
  transformation of the crystal (XRPD): does not result in transformation
After pressing into a tablet, FIG. 2
  transformation of the crystal (XRPD): no transformation

## CCOc1ccc(Cc2cc([C@@H]3O[C@H](CO)[C@@H](O)[C@H](O)[C@H]3O)ccc2Cl)cc1 [Example 1, 2-chloro-5-(β-D-glucopyranosyl-1-yl)-4′-ethoxy-diphenylmethane]
[1]; High humidity test 25° C./RH 75%, day 5
  hygroscope: 4.83%
[1]; High humidity test 25° C./RH 75%, day 10
  hygroscope: 4.84%
[1]; High humidity test 25° C./RH 95%, day 5
  hygroscope: 6.09%
[1]; High humidity test 25° C./RH 95%, day 10
  hygroscope: 6.71%
[2]; 1 Month
  HPLC Identification: accordance
  Moisture Content (%): 0.82%
  Related Substances Maximum Single Impurity (%): 0.03%
  Related Substances Total Impurity (%): 0.10%
  Specific Rotation: +13.2°
  Total Content (%): 99.6%
  XRPD: accordance
[2]; 2 Months
  HPLC Identification: accordance
  Moisture Content (%): 0.81%
  Related Substances Maximum Single Impurity (%): 0.03%
  Related Substances Total Impurity (%): 0.11%
  Specific Rotation: +13.0°
  Total Content (%): 99.7%
  XRPD: accordance
[2]; 3 Months
  HPLC Identification: accordance
  Moisture Content (%): 0.77%
  Related Substances Maximum Single Impurity (%): 0.03%
  Related Substances Total Impurity (%): 0.10%
  Specific Rotation: +13.4°
  Total Content (%): 99.3%
  XRPD: accordance
[2]; 6 Months
  HPLC Identification: accordance
  Moisture Content (%): 0.81%
  Related Substances Maximum Single Impurity (%): 0.03%
  Related Substances Total Impurity (%): 0.13%
  Specific Rotation: +13.3°
  Total Content (%): 99.5%
  XRPD: accordance
  quality indicators of the sample: did not change significantly
[2]; time 0
  HPLC Identification: accordance
  Moisture Content (%): 0.76%
  Related Substances Maximum Single Impurity (%): 0.04%
  Related Substances Total Impurity (%): 0.11%
  Specific Rotation: +13.3°
  Total Content (%): 99.4%
  XRPD: accordance
[3]; 3 Months
  HPLC Identification: accordance
  Moisture Content (%): 0.77%
  Related Substances Maximum Single Impurity (%): 0.03%
  Related Substances Total Impurity (%): 0.11%
  Specific Rotation: +13.1°
  Total Content (%): 99.8%
  XRPD: accordance
[3]; 6 Months
  HPLC Identification: accordance
  Moisture Content (%): 0.80%
  Related Substances Maximum Single Impurity (%): 0.03%
  Related Substances Total Impurity (%): 0.13%
  Specific Rotation: +12.9°
  Total Content (%): 99.5%
  XRPD: accordance
  quality indicators of the sample: did not change significantly
[3]; time 0
  HPLC Identification: accordance
  Moisture Content (%): 0.76%
  Related Substances Maximum Single Impurity (%): 0.04%
  Related Substances Total Impurity (%): 0.11%
  Specific Rotation: +13.3°
  Total Content (%): 99.4%
  XRPD: accordance
